From patent US9034894B2, “Derivate, preparation method and use of 10-methoxycamptothecin” (NORTHEAST FORESTRY UNIVERSITY, priority 2011, dated 2015)

System: ovarian cancer cell line 2774
Experiment: thiazole blue colorimetric method, half inhibitory concentration on ovarian cancer cell line 2774
Format: cell-based

Row | Structure (SMILES) | IC50 [µM]
1 | CCC1(OC(=O)[C@H](Cc2ccccc2)NC(=O)OC(C)(C)C)C(=O)OCc2c1cc1n(c2=O)Cc2cc3cc(OC)ccc3nc2-1 (stereo partly drawn) [10-methoxycamptothecin-20-O—(N′-t-butoxycarbonyl)-L-phenylalanine ester] | 394 ± 21.7
2 | CCC(=O)OC1(CC)C(=O)OCc2c1cc1n(c2=O)Cc2cc3cc(OC)ccc3nc2-1 (stereo not shown) [10-methoxycamptothecin-20-O-propionate] | 842 ± 50.1
3 | CCC1(OC(=O)[C@H](C)NC(=O)OC(C)(C)C)C(=O)OCc2c1cc1n(c2=O)Cc2cc3cc(OC)ccc3nc2-1 (stereo partly drawn) [10-methoxycamptothecin-20-O—(N′-t-butoxycarbonyl)-L-alanine ester] | 46.7 ± 21.7
4 | CCC1(OC(=O)[C@@H](NC(=O)OC(C)(C)C)C(C)C)C(=O)OCc2c1cc1n(c2=O)Cc2cc3cc(OC)ccc3nc2-1 (stereo partly drawn) [10-methoxycamptothecin-20-O—(N′-t-butoxycarbonyl)-L-valine ester] | 1970 ± 93.6
